Assay: Deliquescence test: 1 g of composition left uncovered in a petri dish at 25° C. for 1 week, appearance and weight change evaluated
Format: physicochemical
Design: key: High fluidity and silky smoothness.; Δ: Slightly moist but highly fluid powder.; x: Agglomeration or deliquescence occurred
Details: for Appearance after 1 week / Appearance after 1 day: left uncovered at 25° C.
Method: R-3HB crystals or R-3HB salts (3HB-Na: sodium salt, 3HB-K: potassium salt) and oil and fat particles were weighed in the proportions shown in Table 2 below. Each mixture thereof was milled for 3 seconds five times in a mill mixer (IJM-M800-W, produced by Iris Ohyama Inc.). 1 g of each of the 3HB-containing compositions obtained in the Examples and Comparative Examples was weighed in petri dishes and left uncovered in a room adjusted to 25° C. for 1 week. The appearance and weight change of each composition was then evaluated. As comparative examples, combinations of commonly used silicon dioxide or calcium silicate and fat and/or oil were evaluated. […] The evaluation was made according to the following criteria.
o: High fluidity and silky smoothness. Δ: Slightly moist but highly fluid powder. x: Agglomeration or deliquescence occurred.

CC(O)CC(=O)O (stereo not drawn) [Comp. Ex. 1, 3-Hydroxybutyric acid]
Appearance immediately after milling: Δ
Appearance after 1 week: x (Partial
Appearance after 1 day: x (Partial

CC(O)CC(=O)[O-].[K+] (stereo not drawn) [Comp. Ex. 2]
Appearance immediately after milling: Δ
Appearance after 1 week: x
Appearance after 1 day: x

CC(O)CC(=O)[O-].[Na+] (stereo not drawn) [Comp. Ex. 3]
Appearance immediately after milling: ∘
Appearance after 1 week: x
Appearance after 1 day: x

— patent US20230210795A1, “3-HYDROXYBUTYRIC-ACID-CONTAINING OIL AND FAT COMPOSITION” (OSAKA GAS CO., LTD., priority 2020, published 2023)
